The target of the test is T1, hNOD2 (Homo sapiens, UniProt Q9HC29).
T1 construct: host or cells: HEK-Blue NOD2 cells (HEK293)
Nature of the test: HEK-Blue NOD2 cell line reporter assay (NF-κB-inducible SEAP). The class given is cell-based. As to the method:
To assess the NOD2 agonistic potential of the synthesized desmuramylpeptides at a cellular level, we employed the HEK-Blue NOD2 cell line reporter assay, a validated and commercially available method. All synthesized compounds were evaluated for their dose-dependent activities to establish their EC50 values.
The HEK-Blue NOD1 and NOD2 cell line reporter assay was generated from HEK293 cells through cotransfection of the hNOD1 or hNOD2 gene, respectively, along with an NF-κB-inducible secreted embryonic alkaline phosphatase (SEAP) reporter gene. Upon activation of NOD1 or NOD2, NF-κB triggers the production of SEAP, which can be quantitatively measured colorimetrically. […] After 18 h of incubation at 37 °C with 5% CO2, SEAP activity was measured spectrophotometrically by absorbance at 630 nm (BioTek Synergy microplate reader; Winooski, VT, USA). EC50 values were determined using Prism software (version 9; GraphPad Software, CA, USA). Each experiment was conducted in duplicate and repeated in at least two independent biological replicates.
For orientation: A reporter such as luciferase makes a cellular process visible.

The mark [1] stands for this setting: HEK-Blue NOD2 cells, 18 h, NF-κB transcriptional activity (SEAP), read-out: EC50 (nM), NOD2 agonistic activity.

Data on 21 compounds can be found in article PMC11472310, “Distinctive Immune Signatures Driven by Structural Alterations in Desmuramylpeptide NOD2 Agonists” (Journal of Medicinal Chemistry, 2024).

Like-named read-outs stand apart in the source and are kept apart here.

T1 sequence (Q9HC29 whole entry): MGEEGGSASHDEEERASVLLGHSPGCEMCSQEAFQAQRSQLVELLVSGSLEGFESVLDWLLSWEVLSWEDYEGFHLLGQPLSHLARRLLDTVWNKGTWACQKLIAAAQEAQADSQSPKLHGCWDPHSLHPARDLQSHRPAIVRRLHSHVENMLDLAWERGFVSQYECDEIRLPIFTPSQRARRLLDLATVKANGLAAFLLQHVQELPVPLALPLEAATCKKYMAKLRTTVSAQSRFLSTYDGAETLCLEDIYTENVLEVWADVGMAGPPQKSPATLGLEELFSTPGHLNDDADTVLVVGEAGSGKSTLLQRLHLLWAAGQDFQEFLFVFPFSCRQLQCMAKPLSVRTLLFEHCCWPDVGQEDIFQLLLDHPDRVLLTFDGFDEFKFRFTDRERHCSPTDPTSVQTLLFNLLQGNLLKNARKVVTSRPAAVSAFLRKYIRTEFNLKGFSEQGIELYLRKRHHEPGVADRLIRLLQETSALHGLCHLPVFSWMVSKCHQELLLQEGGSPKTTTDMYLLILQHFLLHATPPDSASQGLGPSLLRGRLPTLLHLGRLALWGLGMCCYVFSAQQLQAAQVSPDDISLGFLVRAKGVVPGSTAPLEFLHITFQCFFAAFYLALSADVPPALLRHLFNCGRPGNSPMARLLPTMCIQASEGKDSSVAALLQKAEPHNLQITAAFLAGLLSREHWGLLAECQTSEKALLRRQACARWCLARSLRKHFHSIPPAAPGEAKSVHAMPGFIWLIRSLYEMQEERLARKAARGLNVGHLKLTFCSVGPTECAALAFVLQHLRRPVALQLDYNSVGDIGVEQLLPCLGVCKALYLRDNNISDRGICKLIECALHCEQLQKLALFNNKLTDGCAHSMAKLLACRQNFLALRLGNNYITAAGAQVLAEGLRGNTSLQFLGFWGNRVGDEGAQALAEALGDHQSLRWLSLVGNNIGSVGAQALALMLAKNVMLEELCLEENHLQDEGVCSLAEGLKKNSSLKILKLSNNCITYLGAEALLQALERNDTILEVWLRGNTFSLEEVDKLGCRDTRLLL

As to `CCCCCC(=O)Oc1ccc(/C=C/C(=O)NCC(=O)N[C@H](C(=O)N[C@H](CCC(=O)OCC)C(=O)OCC)C(C)C)cc1OC` [Compound 4, Diethyl ((E)-3-(4-(Hexanoyloxy)-3-methoxyphenyl)acryloyl)glycyl-L-valyl-D-glutamate], under setting [1], the EC50 (in general, the concentration giving half of the maximal effect) came to 20.2 ± 1.2 nM.

With `CCCCCCCC(=O)Oc1ccc(/C=C/C(=O)NCC(=O)N[C@H](C(=O)N[C@H](CCC(=O)OCC)C(=O)OCC)C(C)C)cc1OC` [Compound 5, Diethyl ((E)-3-(3-Methoxy-4-(octanoyloxy)phenyl)acryloyl)glycyl-L-valyl-D-glutamate], the EC50 under setting [1] was found to be 25.5 ± 2.2 nM.

Take `CCCCCCCCC(=O)Oc1ccc(/C=C/C(=O)NCC(=O)N[C@H](C(=O)N[C@H](CCC(=O)OCC)C(=O)OCC)C(C)C)cc1OC` [Compound 6]: the EC50 under setting [1] stood at 24.8 ± 2.3 nM.

For the compound `CCCCCCCCCC(=O)Oc1ccc(/C=C/C(=O)NCC(=O)N[C@H](C(=O)N[C@H](CCC(=O)OCC)C(=O)OCC)C(C)C)cc1OC` [Compound 7, Diethyl ((E)-3-(4-(Decanoyloxy)-3-methoxyphenyl)acryloyl)glycyl-L-valyl-D-glutamate], the EC50 under setting [1] is 30.6 ± 5.5 nM.

As for `CCCCCCCCCCCCCC(=O)Oc1ccc(/C=C/C(=O)NCC(=O)N[C@H](C(=O)N[C@H](CCC(=O)OCC)C(=O)OCC)C(C)C)cc1OC` [Compound 8, Diethyl ((E)-3-(3-Methoxy-4-(tetradecanoyloxy)phenyl)acryloyl)glycyl-L-valyl-D-glutamate], the EC50 under setting [1] came to 69.5 ± 5.1 nM.

For the compound `CCCCCCCCCCCCCCCCCC(=O)Oc1ccc(/C=C/C(=O)NCC(=O)N[C@H](C(=O)N[C@H](CCC(=O)OCC)C(=O)OCC)C(C)C)cc1OC` [Compound 10], the EC50 came to 7200 ± 2640 nM under setting [1] and 7200 nM (HEK-Blue NOD2 cells, 18 h, read-out: EC50, NOD2 agonistic activity (text)).

As for `CCCCCC(C)C(=O)Oc1ccc(/C=C/C(=O)NCC(=O)N[C@H](C(=O)N[C@H](CCC(=O)OCC)C(=O)OCC)C(C)C)cc1OC` (stereo partly drawn) [Compound 11, Diethyl ((E)-3-(3-Methoxy-4-((2-methylheptanoyl)oxy)phenyl)acryloyl)glycyl-L-valyl-D-glutamate], under setting [1], the EC50 stood at 11.7 ± 2.8 nM.

In the case of `CCCCC(CC)C(=O)Oc1ccc(/C=C/C(=O)NCC(=O)N[C@H](C(=O)N[C@H](CCC(=O)OCC)C(=O)OCC)C(C)C)cc1OC` (stereo partly drawn) [Compound 12, Diethyl ((E)-3-(4-((2-ethylhexanoyl)oxy)-3-methoxyphenyl)acryloyl)glycyl-L-valyl-D-glutamate], the EC50 under setting [1] came to 21.6 ± 6.5 nM.

As for `CCCCCCC(CC)C(=O)Oc1ccc(/C=C/C(=O)NCC(=O)N[C@H](C(=O)N[C@H](CCC(=O)OCC)C(=O)OCC)C(C)C)cc1OC` (stereo partly drawn) [Compound 13, Diethyl ((E)-3-(4-((2-Ethyloctanoyl)oxy)-3-methoxyphenyl)acryloyl)glycyl-L-valyl-D-glutamate], the half-maximal effective concentration (EC50) by setting is: under setting [1], 9.7 nM; (supplementary SMILES csv, read-out: HEK-blue hNOD2 EC50) 9.7 nM.

Take `CCCCCC(CCC)C(=O)Oc1ccc(/C=C/C(=O)NCC(=O)N[C@H](C(=O)N[C@H](CCC(=O)OCC)C(=O)OCC)C(C)C)cc1OC` (stereo partly drawn) [Compound 14, Diethyl ((E)-3-(3-Methoxy-4-((2-propylheptanoyl)oxy)phenyl)acryloyl)glycyl-L-valyl-D-glutamate]: under setting [1], the EC50 was 19.4 ± 3.6 nM.

Take `CCCCC(CCCC)C(=O)Oc1ccc(/C=C/C(=O)NCC(=O)N[C@H](C(=O)N[C@H](CCC(=O)OCC)C(=O)OCC)C(C)C)cc1OC` [Compound 15, Diethyl ((E)-3-(4-((2-Butylhexanoyl)oxy)-3-methoxyphenyl)acryloyl)glycyl-L-valyl-D-glutamate]: the EC50 under setting [1] was 22.4 ± 5.9 nM.

With `CCOC(=O)CC[C@@H](NC(=O)[C@@H](NC(=O)CNC(=O)/C=C/c1ccc(OC(=O)CCCC2CCCCC2)c(OC)c1)C(C)C)C(=O)OCC` [Compound 16, Diethyl ((E)-3-(4-((4-Cyclohexylbutanoyl)oxy)-3-methoxyphenyl)acryloyl)glycyl-L-valyl-D-glutamate], the EC50 under setting [1] stood at 25.8 ± 3.3 nM.

For the compound `CCCCCC(CCCCC)C(=O)Oc1ccc(/C=C/C(=O)NCC(=O)N[C@H](C(=O)N[C@H](CCC(=O)OCC)C(=O)OCC)C(C)C)cc1OC` [Compound 17, Diethyl ((E)-3-(3-Methoxy-4-((2-pentylheptanoyl)oxy)phenyl)acryloyl)glycyl-L-valyl-D-glutamate], the “drop of activity compared to 2” value (EC50 ratio versus 2 (lauroyl)) is on record as 9 factor. In addition, the EC50 under setting [1] came out at 88.6 ± 10.5 nM.

In the case of `CCCCCCCC/C=C\CCCCCCCC(=O)Oc1ccc(/C=C/C(=O)NCC(=O)N[C@H](C(=O)N[C@H](CCC(=O)OCC)C(=O)OCC)C(C)C)cc1OC` [Compound 18, Diethyl ((E)-3-(3-Methoxy-4-(oleoyloxy)phenyl)acryloyl)glycyl-L-valyl-D-glutamate], under “EC50 ratio versus 10 (stearoyl)”, the “increase in potency compared to saturated counterpart 10” value is 17 fold. For the same compound, under setting [1], the EC50 worked out at 422 ± 120 nM.

Regarding `CCCCC/C=C\C/C=C\CCCCCCCC(=O)Oc1ccc(/C=C/C(=O)NCC(=O)N[C@H](C(=O)N[C@H](CCC(=O)OCC)C(=O)OCC)C(C)C)cc1OC` [Compound 19, Diethyl ((E)-3-(3-Methoxy-4-(((9Z,12Z)-octadeca-9,12-dienoyl)oxy)phenyl)acryloyl)glycyl-L-valyl-D-glutamate], the EC50 under setting [1] was determined as 198 ± 39.1 nM.

For `CC/C=C\C/C=C\C/C=C\CCCCCCCC(=O)Oc1ccc(/C=C/C(=O)NCC(=O)N[C@H](C(=O)N[C@H](CCC(=O)OCC)C(=O)OCC)C(C)C)cc1OC` [Compound 20, Diethyl ((E)-3-(3-Methoxy-4-(((9Z,12Z,15Z)-octadeca-9,12,15-trienoyl)oxy)phenyl)acryloyl)glycyl-L-valyl-D-glutamate], under setting [1], the EC50 stood at 135 ± 28.9 nM.

With `CCCCC/C=C\C/C=C\C/C=C\CCCCC(=O)Oc1ccc(/C=C/C(=O)NCC(=O)N[C@H](C(=O)N[C@H](CCC(=O)OCC)C(=O)OCC)C(C)C)cc1OC` [Compound 21, Diethyl ((E)-3-(3-Methoxy-4-(((6Z,9Z,12Z)-octadeca-6,9,12-trienoyl)oxy)phenyl)acryloyl)glycyl-L-valyl-D-glutamate], the EC50 under setting [1] amounted to 205 ± 28.6 nM.

For the compound `CC/C=C\C/C=C\C/C=C\C/C=C\C/C=C\C/C=C\CCC(=O)Oc1ccc(/C=C/C(=O)NCC(=O)N[C@H](C(=O)N[C@H](CCC(=O)OCC)C(=O)OCC)C(C)C)cc1OC` [Compound 22, Diethyl ((E)-3-(4-(((4Z,7Z,10Z,13Z,16Z,19Z)-Docosa-4,7,10,13,16,19-hexaenoyl)oxy)-3-methoxyphenyl)acryloyl)glycyl-L-valyl-D-glutamate], the EC50 under setting [1] amounted to 200 ± 50.8 nM.

As to `CCOC(=O)CC[C@@H](NC(=O)[C@@H](NC(=O)CNC(=O)/C=C/c1ccc(OC(=O)CCCCCCCCCCCCCO)c(OC)c1)C(C)C)C(=O)OCC` [Compound 24, Diethyl ((E)-3-(4-((14-Hydroxytetradecanoyl)oxy)-3-methoxyphenyl)acryloyl)glycyl-L-valyl-D-glutamate], the “boost of NOD2 agonistic activity compared to 8” value (EC50 ratio versus unsubstituted myristoylated 8) worked out at 6 fold. Further, the EC50 under setting [1] amounted to 12.3 ± 1.5 nM.

On to `CCOC(=O)[C@@H](CCC(=O)NCCCCN)NC(=O)[C@@H](NC(=O)CNC(=O)/C=C/c1ccc(O)c(OC)c1)C(C)C` [Compound 30, Ethyl N^5-(4-Aminobutyl)-N^2-((E)-3-(4-hydroxy-3-methoxyphenyl)acryloyl)glycyl-L-valyl-D-glutaminate], for which the EC50 under setting [1] is > 10000 nM.

`CCOC(=O)[C@@H](CCC(=O)NCCCNCCCCN)NC(=O)[C@@H](NC(=O)CNC(=O)/C=C/c1ccc(O)c(OC)c1)C(C)C` [Compound 34, Ethyl N^5-(3-((4-Aminobutyl)amino)propyl)-N^2-((E)-3-(4-hydroxy-3-methoxyphenyl)acryloyl)glycyl-L-valyl-D-glutaminate]: the EC50 under setting [1] was > 10000 nM.
